From US20260048138A1, “NOVEL PI3K AND/OR PIKK INHIBITORS, ANTIBODY-DRUG CONJUGATES COMPRISING THE SAME AND USES THEREOF” (HUTCHMED LIMITED, priority 2024, published 2026)
Read-outs that look alike come from different tables or passages of the source. Values belong to the molecule of their own block, whether it stands above or below them.

Tests used:
MDA-MB-453 = assay: Inhibition of cell proliferation by payloads in vitro (CCK-8); type: cell-based; conditions: Homo sapiens, MDA-MB-453, 144 h, read-out: IC50, nM MDA-MB-453
Procedure: (§1) The cells were added to a 96-well plate at 1.0×10^3 cells/well and 100 μL/well and incubated in a cell culture incubator at 37° C. and 5% CO2. The test compounds were diluted with a DMEM medium containing 2% DMSO (Sigma-Aldrich, Cat. No. 34869) in a 4-fold gradient to the corresponding concentrations. […] The final concentration of DMSO was 0.2%. The cells were incubated in a cell culture incubator at 37° C. and 5% CO2 for 6 days.
(§2) After 6 days of culture, 10 μL/well of Cell Counting Kit-8 reagent (CCK-8, Dojindo, Cat. No. CK04) was added to the wells and mixed well with shaking. The cells were incubated in a cell culture incubator at 37° C. and 5% CO2 for 0.50-4.0 hours.
(§3) The OD450 optical density value was read on an EnVision™ multi-function microplate reader (PerkinElmer), and the inhibition rates (%) of the compounds were calculated. Then, the half-maximal inhibitory concentration (IC50) values were obtained using the XLfit5 software (ID Business Solutions Limited). All samples were tested in duplicate wells.
(§4) [formula] • wherein • OD450test compound represents the optical density value in the wells of the compounds to be tested; • OD450cell represents the optical density value in the wells of cell controls; • OD450background represents the optical density value in the wells of cell-free controls.

MDA-MB-468 = assay: as above; type: cell-based; conditions: Homo sapiens, MDA-MB-468, 144 h, read-out: IC50, nM MDA-MB-468
Procedure: as §1, §2, §3, §4

[1] = target: T1, Human PIK3CA/PIK3R1 (p110α/p85α) recombinant protein (Homo sapiens, UniProt P42336); assay: PIK3CA/PIK3R1 (p110α/p85α) kinase activity, Transcreener ADP2 FP; type: biochemical; conditions: 10 μM ATP, 30 μM PIP2:PS; read-out: PIK3CA/PIK3R1 (p110α/p85α) (Enzyme, IC50)
T1 construct: His tag; purchased Invitrogen PV4788
Procedure: The complex formed by the binding of the ADP Alexa633 Tracer to the ADP2 antibody therein could produce fluorescence polarization. […] Assay is carried out according to the instruction of the kit. […] After that, 10 μl PIK3CA/PIK3R1 (p110α/p85α) enzyme solution was added to each well; then, 10 μl of a mixed solution of ATP and PIP2:PS lipid kinase substrate was added to each well, and the mixture was centrifuged at 1000 rpm for 60 seconds; Then, the 96-well plate was placed in a constant temperature incubator protected from light and incubated at room temperature for 1 hour. […] After the enzymatic reaction was completed, 25 μl of ADP detection mixture was added to the positive control group, 25 μl of ADP detection mixture without ADP^2 antibody was added to the negative control group, and 25 μl of ADP detection mixture without tracer-label ADP and ADP^2 antibody was added to the blank control group. Then centrifugation was performed at 1000 rpm for 60 seconds. The 96-well plate was placed in a constant temperature incubator protected from light, and incubated at room temperature for 1.5 hours. […] [formula] The inhibition rate was calculated using the formula as below: [formula]

[2] = target: T2, Human FRAP1 (mTOR) recombinant protein (Homo sapiens, UniProt P42345); assay: FRAP1 (mTOR) kinase activity, LanthaScreen TR-FRET; type: biochemical; conditions: 10 μM ATP, 0.4 μM GFP-4EBP1; read-out: FRAP1 (mTOR) (Enzyme, IC50)
T2 construct: GST; purchased Invitrogen PV4753
Procedure: Determination of FRAP1 (mTOR) Kinase Activity • Human FRAP1 (mTOR) recombinant protein (GST tag): Invitrogen, Cat. No. PV4753; • GFP-4E-BP1: Thermo Scientific, Cat. No. PV4759; • LanthaScreenTM Tb-p4E-BP1 ([…]) antibody: Thermo Scientific, Cat. No. PV4755; • TR-FRET dilution buffer: Thermo Scientific, Cat. No. PV3574; • ATP solution (10 mM): Thermo Scientific, Cat. No. PV3227; • HEPES (1 M): Gibco, Cat. No. 15630-106; • EDTA (0.5 M), pH 8.0, RNase-free: Invitrogen, Cat. No. A[…]; • Manganese chloride solution: Sigma-Aldrich, Cat. No. M1787; • EGTA: Sigma-Aldrich, Cat. No. E4378; • TWEEN®20: Sigma-Aldrich, Cat. No. P2287; • DTT: Sigma-Aldrich, Cat. No. DTT-RO; • 384-well plate: Corning, Cat. No. 3676; • 384-well plate: Corning, Cat. No. 4514; • Envision multi-mode plate reader: PerkinElmer; 4EBP1 is the substrate of mTOR, and when mTOR is activated, it will phosphorylate […] of the 4EBP1 protein. LanthaScreenTM kinase assay is used to detect the amount of phosphorylated substrate GFP-4E-BP1 produced in kinase activity experiments, thereby judging the mTOR kinase activity, and through the strength of the kinase activity, distinguishing the inhibitory effects of different compounds on the activity of FRAP1 (mTOR) kinase. […] Then, the 384-well plate was placed in a constant temperature incubator protected from light and incubated at room temperature for 1 hour. […] The 384-well plate was taken out and the plate was read using an Envision multi-mode plate reader (the excitation light wavelength was 320 nm and the emission light wavelengths were 495 nm and 520 nm). The inhibition rate was calculated using the formula as below: [formula]

ATM(h) = ATM(h) (Homo sapiens, UniProt Q13315); assay: ATM(h) kinase activity, HTRF (Eurofins Cerep); type: biochemical; conditions: read-out: ATM(h) (enzyme, IC50)
Procedure: (§5) The […], ATM(h), ATR/ATRIP(h), and DNA-PK (h) were detected by HTRFR.
(§6) The calculation formula was as follows: […]
(§7) For IC50 determination, the data were analyzed using XLFit version 5.3 (ID Business Solutions).

ATR/ATRIP(h) = target: T3, ATR/ATRIP(h) (Homo sapiens, UniProt Q13535); assay: ATR/ATRIP(h) kinase activity, HTRF (Eurofins Cerep); type: biochemical; conditions: read-out: ATR/ATRIP(h) (enzyme, IC50)
T3 construct: purchased Eurofins Cerep 14-953
Procedure: as §5, §6, §7

DNA-PK(h) = target: T4, DNA-PK(h) (Homo sapiens, UniProt P78527); assay: DNA-PK(h) kinase activity, HTRF (Eurofins Cerep); type: biochemical; conditions: read-out: DNA-PK(h) (enzyme, IC50)
T4 construct: purchased Eurofins Cerep 14-950
Procedure: as §5, §6, §7

CD38 (Ramos cells) = target: T5, CD38 (Ramos cells) (Homo sapiens, UniProt P28907); assay: Binding of antibody or ADC to Ramos cells (CD38+) by flow cytometry; conditions: cell binding, MFI by flow cytometry
T5 construct: Ramos cells (ATCC, Cat. No. CRL-1596); host or cells: Ramos

CEACAM5/6 [3] = assay: cell-based or functional assay
CEACAM5/6 [4] = assay: flow cytometry on H2122 cells (CEACAM5/6+)
CD20 [5] = target: T6, CD20 (UniProt P11836 1-297, limits assumed); assay: cell-based or functional assay
T6 sequence (looked up): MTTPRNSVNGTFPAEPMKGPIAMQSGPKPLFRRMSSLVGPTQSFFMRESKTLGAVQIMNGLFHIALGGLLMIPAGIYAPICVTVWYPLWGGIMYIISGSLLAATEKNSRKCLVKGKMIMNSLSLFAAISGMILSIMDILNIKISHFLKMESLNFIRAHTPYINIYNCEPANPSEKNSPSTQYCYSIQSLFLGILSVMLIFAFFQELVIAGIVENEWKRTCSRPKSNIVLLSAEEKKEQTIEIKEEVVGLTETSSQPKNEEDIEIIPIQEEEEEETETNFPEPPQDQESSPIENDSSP

CD20 [6] = target: T6, CD20; assay: flow cytometry on Ramos cells (CD20+)
[7] = payloads, proliferation, 6 days, CCK-8

ATM(h), sequence (Q13315 whole entry): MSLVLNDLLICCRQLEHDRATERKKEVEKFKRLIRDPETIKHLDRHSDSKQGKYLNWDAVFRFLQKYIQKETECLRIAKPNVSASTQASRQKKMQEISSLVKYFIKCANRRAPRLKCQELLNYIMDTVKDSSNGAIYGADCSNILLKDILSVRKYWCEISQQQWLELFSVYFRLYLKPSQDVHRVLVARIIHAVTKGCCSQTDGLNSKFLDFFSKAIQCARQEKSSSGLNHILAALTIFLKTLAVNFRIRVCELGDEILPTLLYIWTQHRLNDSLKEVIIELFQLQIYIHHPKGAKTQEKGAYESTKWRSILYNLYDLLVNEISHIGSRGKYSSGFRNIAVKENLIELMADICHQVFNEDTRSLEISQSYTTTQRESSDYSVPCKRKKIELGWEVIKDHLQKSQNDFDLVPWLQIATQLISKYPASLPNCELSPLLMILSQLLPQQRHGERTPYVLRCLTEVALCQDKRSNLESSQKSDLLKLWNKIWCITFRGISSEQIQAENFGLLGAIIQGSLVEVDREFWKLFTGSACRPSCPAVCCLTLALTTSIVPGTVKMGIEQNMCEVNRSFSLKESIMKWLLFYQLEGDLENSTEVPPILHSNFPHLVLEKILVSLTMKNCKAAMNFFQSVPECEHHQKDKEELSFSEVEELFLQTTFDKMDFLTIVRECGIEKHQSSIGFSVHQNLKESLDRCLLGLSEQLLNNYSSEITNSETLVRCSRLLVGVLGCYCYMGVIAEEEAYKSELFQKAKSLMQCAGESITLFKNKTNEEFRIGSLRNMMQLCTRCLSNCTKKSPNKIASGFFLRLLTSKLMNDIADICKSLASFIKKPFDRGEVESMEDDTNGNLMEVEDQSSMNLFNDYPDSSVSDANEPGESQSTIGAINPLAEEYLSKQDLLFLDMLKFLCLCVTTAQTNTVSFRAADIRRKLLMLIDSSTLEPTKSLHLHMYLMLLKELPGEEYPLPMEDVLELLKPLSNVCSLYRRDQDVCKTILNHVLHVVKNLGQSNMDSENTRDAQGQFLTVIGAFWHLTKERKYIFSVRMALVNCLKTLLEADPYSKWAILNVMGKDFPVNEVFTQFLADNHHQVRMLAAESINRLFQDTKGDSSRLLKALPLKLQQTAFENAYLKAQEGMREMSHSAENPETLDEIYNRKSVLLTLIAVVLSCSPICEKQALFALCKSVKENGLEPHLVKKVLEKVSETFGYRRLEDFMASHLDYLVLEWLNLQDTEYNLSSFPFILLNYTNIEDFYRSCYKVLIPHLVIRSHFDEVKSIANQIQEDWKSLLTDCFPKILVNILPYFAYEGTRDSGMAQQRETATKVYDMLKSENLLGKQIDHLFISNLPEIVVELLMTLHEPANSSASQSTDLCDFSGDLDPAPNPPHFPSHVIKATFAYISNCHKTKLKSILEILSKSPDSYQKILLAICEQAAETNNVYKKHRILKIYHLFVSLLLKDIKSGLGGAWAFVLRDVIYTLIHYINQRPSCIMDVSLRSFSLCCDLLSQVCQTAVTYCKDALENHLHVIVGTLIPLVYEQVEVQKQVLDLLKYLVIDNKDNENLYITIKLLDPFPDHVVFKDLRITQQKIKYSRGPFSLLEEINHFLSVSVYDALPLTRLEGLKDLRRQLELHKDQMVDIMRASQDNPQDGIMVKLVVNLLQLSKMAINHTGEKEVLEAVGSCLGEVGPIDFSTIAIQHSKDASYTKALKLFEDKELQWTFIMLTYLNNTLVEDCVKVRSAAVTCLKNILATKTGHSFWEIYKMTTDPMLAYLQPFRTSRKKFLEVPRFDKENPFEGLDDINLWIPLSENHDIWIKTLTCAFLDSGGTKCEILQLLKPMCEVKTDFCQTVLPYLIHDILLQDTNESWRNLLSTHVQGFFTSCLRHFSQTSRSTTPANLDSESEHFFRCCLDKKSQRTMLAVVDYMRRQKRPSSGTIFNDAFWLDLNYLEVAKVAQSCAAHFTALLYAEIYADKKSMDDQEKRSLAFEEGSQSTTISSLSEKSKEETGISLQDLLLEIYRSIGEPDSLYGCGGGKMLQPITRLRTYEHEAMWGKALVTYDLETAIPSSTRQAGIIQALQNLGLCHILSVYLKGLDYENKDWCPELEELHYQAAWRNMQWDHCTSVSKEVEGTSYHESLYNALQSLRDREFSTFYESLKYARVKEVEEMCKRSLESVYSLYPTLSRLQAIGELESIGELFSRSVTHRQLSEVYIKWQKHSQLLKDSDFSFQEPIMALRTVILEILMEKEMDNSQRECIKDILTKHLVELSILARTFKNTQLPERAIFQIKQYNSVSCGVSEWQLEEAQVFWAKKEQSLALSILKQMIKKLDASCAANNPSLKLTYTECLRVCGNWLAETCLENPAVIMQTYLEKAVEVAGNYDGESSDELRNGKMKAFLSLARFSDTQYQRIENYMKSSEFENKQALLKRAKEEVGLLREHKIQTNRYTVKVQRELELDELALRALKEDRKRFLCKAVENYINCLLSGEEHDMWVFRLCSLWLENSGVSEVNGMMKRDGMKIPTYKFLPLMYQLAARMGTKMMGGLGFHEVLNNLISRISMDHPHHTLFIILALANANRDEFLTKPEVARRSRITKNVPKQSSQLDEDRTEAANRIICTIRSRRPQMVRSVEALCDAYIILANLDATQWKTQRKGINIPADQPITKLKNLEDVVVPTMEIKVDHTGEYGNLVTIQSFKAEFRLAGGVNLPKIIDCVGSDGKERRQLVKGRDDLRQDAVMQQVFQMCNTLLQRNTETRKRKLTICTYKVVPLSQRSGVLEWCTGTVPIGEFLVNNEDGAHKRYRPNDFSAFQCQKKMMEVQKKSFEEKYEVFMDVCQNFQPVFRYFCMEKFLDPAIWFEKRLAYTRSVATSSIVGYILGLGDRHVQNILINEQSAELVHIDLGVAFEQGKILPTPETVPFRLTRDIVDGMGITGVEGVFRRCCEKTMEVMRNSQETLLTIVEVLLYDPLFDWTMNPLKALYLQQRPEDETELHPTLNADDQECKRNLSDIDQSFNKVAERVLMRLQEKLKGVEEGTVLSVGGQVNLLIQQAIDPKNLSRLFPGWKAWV
T1 sequence (P42336 whole entry): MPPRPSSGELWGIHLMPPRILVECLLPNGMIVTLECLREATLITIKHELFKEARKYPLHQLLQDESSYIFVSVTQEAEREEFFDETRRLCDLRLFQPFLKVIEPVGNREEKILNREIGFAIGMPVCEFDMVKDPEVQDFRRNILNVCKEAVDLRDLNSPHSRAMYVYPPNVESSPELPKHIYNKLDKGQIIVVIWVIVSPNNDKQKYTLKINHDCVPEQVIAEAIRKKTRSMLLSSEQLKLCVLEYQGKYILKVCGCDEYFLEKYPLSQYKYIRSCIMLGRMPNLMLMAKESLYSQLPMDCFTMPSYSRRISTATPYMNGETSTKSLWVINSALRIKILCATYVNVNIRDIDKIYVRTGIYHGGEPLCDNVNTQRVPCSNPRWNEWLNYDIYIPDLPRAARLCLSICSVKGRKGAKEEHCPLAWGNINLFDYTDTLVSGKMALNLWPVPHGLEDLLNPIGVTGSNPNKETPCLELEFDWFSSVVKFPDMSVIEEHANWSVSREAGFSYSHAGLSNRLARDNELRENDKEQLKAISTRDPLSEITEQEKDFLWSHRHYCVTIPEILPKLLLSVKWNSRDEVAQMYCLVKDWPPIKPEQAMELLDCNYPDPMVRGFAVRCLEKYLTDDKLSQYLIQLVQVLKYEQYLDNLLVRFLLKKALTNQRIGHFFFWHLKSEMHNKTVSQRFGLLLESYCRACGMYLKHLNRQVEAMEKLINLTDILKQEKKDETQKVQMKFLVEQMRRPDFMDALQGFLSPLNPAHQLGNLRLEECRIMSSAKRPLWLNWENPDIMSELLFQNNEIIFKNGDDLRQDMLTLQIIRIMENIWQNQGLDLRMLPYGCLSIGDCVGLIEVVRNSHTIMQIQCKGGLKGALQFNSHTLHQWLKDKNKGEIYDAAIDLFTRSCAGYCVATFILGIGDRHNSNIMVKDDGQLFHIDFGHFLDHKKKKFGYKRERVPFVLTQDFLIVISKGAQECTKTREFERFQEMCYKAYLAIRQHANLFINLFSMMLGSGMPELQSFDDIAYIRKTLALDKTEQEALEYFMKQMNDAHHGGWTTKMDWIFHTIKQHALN
T1 sequence (P27986 whole entry partner): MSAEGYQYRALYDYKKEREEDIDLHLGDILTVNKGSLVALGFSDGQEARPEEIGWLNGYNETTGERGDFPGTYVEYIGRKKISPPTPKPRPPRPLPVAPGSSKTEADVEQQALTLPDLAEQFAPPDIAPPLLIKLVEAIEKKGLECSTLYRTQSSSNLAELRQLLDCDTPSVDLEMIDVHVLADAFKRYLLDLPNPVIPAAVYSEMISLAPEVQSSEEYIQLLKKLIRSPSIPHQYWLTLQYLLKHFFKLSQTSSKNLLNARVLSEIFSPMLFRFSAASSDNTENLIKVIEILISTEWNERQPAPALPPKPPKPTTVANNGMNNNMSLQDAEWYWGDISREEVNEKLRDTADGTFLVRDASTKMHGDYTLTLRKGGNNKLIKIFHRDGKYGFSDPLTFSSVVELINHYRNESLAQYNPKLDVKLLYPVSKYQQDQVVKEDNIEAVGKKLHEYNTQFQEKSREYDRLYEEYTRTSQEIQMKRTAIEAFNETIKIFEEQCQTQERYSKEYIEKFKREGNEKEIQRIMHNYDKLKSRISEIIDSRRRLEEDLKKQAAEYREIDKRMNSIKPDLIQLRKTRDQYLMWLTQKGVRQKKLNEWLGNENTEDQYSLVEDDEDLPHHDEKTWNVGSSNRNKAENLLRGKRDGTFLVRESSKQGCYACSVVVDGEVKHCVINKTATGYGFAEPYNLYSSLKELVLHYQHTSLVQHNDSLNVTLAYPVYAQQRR

Molecule: COc1ncc(-c2ccc3ncc4c(c3c2)n(C2CC2)c(=O)n4C)cc1NS(=O)(=O)N1CCNCC1 [Compound 2]
IC50 (MDA-MB-453): 0.31 nM | IC50 (MDA-MB-468): 0.41 nM | IC50 [1]: 0.7 nM | IC50 [2]: 6.3 nM | IC50 (ATM(h)): 1 nM | IC50 (ATR/ATRIP(h)): 13 nM | IC50 (DNA-PK(h)): 0.4 nM

Molecule: COCC1(n2c(=O)n(C)c3cnc4ccc(-c5cnc(OC)c(NS(=O)(=O)N6CCNCC6)c5)cc4c32)CC1 [Compound 30]
IC50 (MDA-MB-453; [7]): 0.41 nM | IC50 (MDA-MB-468; [7]): 0.64 nM | IC50 [1]: 2.3 nM | IC50 [2]: 4.6 nM | IC50 (ATM(h)): 1 nM | IC50 (ATR/ATRIP(h)): 36 nM | IC50 (DNA-PK(h)): 0.6 nM

B2: mAb1 (antibody, human IgG1, kappa, V domains shown)
VH: QVQLVQSGAEVKKPGASVKVSCKASGYTFTDYAMHWVRQAPGQRLEWMGLISTYSGDTKYNQNFQGRVTMTVDKSASTAYMELSSLRSEDTAVYYCARGDYSGSRYWFAYWGQGTLVTVSS
VL: DIQMTQSPSSLSASVGDRVTITCQASENIYGALNWYQRKPGKSPKLLIYGASNLATGMPSRFSGSGSGTDYTFTISSLQPEDIATYYCQQVLSSPYTFGGGTKLEIKR
EC50 (CEACAM5/6 [4]): 7.94 nM

B3: ADC-24 (antibody, human IgG1, kappa, V domains shown)
VH: QVQLQQPGAELVKPGASVKMSCKASGYTFTSYNMHWVKQTPGRGLEWIGAIYPGNGDTSYNQKFKGKATLTADKSSSTAYMQLSSLTSEDSAVYYCARSTYYGGDWYFNVWGAGTTVTVSA
VL: QIVLSQSPAILSASPGEKVTMTCRASSSVSYIHWFQQKPGSSPKPWIYATSNLASGVPVRFSGSGSGTSYSLTISRVEAEDAATYYCQQWTSNPPTFGGGTKLEIKR
IC50, nM, cell proliferation, Ramos cell line (CD20^+) (CD20 [5]): 27.7 nM | EC50 (CD20 [6]): 0.457 nM

The next lines start with the values.

IC50 (MDA-MB-453; [7]): 0.23 nM | IC50 (MDA-MB-468; [7]): 0.39 nM | IC50 [1]: 0.5 nM | IC50 [2]: 3.6 nM | IC50 (ATM(h)): 0.5 nM | IC50 (ATR/ATRIP(h)): 9 nM | IC50 (DNA-PK(h)): 0.1 nM
Molecule: COc1ncc(-c2ccc3ncc4cnc(C5CC5)n4c3c2)cc1NS(=O)(=O)N1CCNCC1 [Compound 1]

IC50 (MDA-MB-453; [7]): 0.056 nM | IC50 (MDA-MB-468; [7]): 0.078 nM | IC50 [1]: 1.4 nM | IC50 [2]: 1.4 nM | IC50 (ATM(h)): 0.7 nM | IC50 (ATR/ATRIP(h)): 20 nM | IC50 (DNA-PK(h)): 0.3 nM
Molecule: COc1ncc(-c2ccc3ncc4c(c3c2)n(C(C)C)c(=O)n4C)cc1NS(=O)(=O)N1CCNCC1 [Compound 29]

EC50 (CD38 (Ramos cells)): 3.51 nM
Molecule: daratumumab

IC50, nM, cell proliferation, H2122 cell line (CEACAM 5/6^+) (CEACAM5/6 [3]): 0.29 nM | EC50 (CEACAM5/6 [4]): 4.26 nM
B1: ADC-32 (antibody, human IgG1, kappa, V domains shown)
VH: B2 VH
VL: B2 VL

EC50 (CD20 [6]): 0.691 nM
B4: Rituximab (antibody, human IgG1, kappa, V domains shown)
VH: B3 VH
VL: B3 VL
